The record followed here is patent US9353067B2, “Heterocyclic compounds and uses thereof in the treatment of sexual disorders” (ATIR Holding S.A., priority 2011, dated 2016).

For one experiment, the target named is D2 short receptor (Homo sapiens (Human), UniProt P14416). Briefly: Competitive binding to D2 short receptor ([3H]-spiperone), D4/D2 selectivity. The settings on record: ratio of concentrations required to inhibit 50% of radioligand binding for each receptor. On the procedure: (§1) R-55 (which comprises a 3-hydroxyphenyl moiety) and its isomers L-221 (comprising a 4-hydroxyphenyl moiety) and L-238 (comprising a 2-hydroxyphenyl moiety) were assayed for competitive binding to D2 SHORT and D4.4 type dopamine receptors, in order to assess their efficacy for treating sexual disorders. Both receptor types are expressed as human recombinant proteins in CHO cells, as described, for example, in Jarvis et al. (1973); Van Tol et al. (1991) and Van Tol et al. (1992).
Chain of D2 short receptor (P14416 other isoform, or with tags, fused parts or gaps): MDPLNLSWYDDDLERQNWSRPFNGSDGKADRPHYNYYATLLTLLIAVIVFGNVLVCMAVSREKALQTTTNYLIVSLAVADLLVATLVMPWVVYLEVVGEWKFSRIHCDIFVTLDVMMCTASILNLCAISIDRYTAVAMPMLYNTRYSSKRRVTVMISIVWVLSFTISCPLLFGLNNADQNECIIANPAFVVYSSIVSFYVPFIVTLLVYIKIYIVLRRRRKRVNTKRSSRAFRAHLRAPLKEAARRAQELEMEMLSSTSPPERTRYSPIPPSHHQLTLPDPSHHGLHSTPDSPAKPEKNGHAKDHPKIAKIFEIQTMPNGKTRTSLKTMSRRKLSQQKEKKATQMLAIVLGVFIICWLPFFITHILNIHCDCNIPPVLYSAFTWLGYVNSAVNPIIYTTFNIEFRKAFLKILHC
Determination of binding to D2 short receptor was performed using [^3H]-spiperone, a D2 receptor ligand (Gundlach et al., 1984), as a radioligand (20-60 Ci/mmol, 0.2 nM) in the presence of various concentrations of the tested compound. Reactions were carried out in 50 mM TRIS-HCl (pH 7.4) containing 120 mM NaCl, 5 mM KCl, 5 mM MgCl2 and 1 mM EDTA, for 60 minutes at 25° C. The reaction was terminated by rapid vacuum filtration onto glass fiber filters. Radioactivity trapped onto the filters was determined (counted) and compared to control values in order to accurately evaluate any interaction of the test compound(s) with the cloned dopamine D2 short binding site.
Selectivity of R-55 was calculated as the D4/D2 binding ratio, based on the ratio of the concentration required to inhibit 50% of the radioligand binding for each receptor.

A further experiment has as its target Dopamine D1 receptor (Homo sapiens (Human), UniProt P21728). As to the kind of experiment: Competitive binding, SCH-23390 radioligand. On the procedure: (§2) R-55 (which comprises a 3-hydroxyphenyl moiety) and the structurally related compounds N-108 (2-{[4-(2-ethoxyphenyl)piperazin-1-yl]methyl}quinazolin-4(3H)-one) and B-39 (7-chloro-2-((5,6-dihydro-4-(2-methoxyphenyl)pyridin-1(2H)-yl)methyl)quinazolin-4(3H)-one) were assayed for competitive binding to a variety of receptors, including D4.4 type dopamine receptor, in order to assess their specificity for D4.4 dopamine receptors.
(§3) The receptors were expressed as human recombinant proteins in CHO cells, except for adrenergic α1 and α2 receptors which were expressed in Wistar rat brain and cerebral cortex cells, respectively, and melanocortin MC4 receptor which was expressed in human recombinant HEK-293 cells. Binding was determined using the following radioligands in the presence of various concentrations of the tested compound:
1.4 nM and 2 nM SCH-23390, respectively, for dopamine D1 and D5 receptors,
(§4) The binding assays were performed in accordance with procedures described in the literature (Greengrass & Bremner, 1979; Boyajian & Leslie, 1987; Broadhurst, 1988; Lewis, 2001; Sutton, 1995; Dearry, 1990; Zhou, 1990; Grandy, 1989; Hayes, 1992; Sokoloff, 1990; Van Tol, 1991; Van Tol 1992; Sunahara, 1991; Weinshank, 1991; Schioth, 1996; Schioth 1997; Martin & Humphrey, 1994; May, 2003; Wolf & Schutz, 1997).

Another experiment deals with Adrenergic α2 receptor. Briefly: Competitive binding, rauwolscine radioligand. The arrangement: species or system Wistar rat. On the procedure:
as §2, §3
0.7 nM rauwolscine for adrenergic α2 receptor,
as §4

Experiment [1] deals with D4.4 type dopamine receptor (Homo sapiens (Human), UniProt P21917). As to the kind of experiment: Competitive binding to D4.4 receptor ([3H]-YM-09151-2). Particulars: human recombinant receptor in CHO cells, [3H]-YM-09151-2 0.3 nM. Here is the method:
as §1
Determination of binding to D4.4 receptor was performed using [^3H]-YM-09151-2 (70-87 Ci/mmol, 0.3 nM), as a radioligand, in the presence of various concentrations of the tested compound. Reactions were carried out in 50 mM TRIS-HCl (pH 7.4) containing 5 mM MgCl2, 5 mM EDTA, 5 mM KCl and 1.5 mM CaCl2, for 60 minutes at 22° C. The reaction was terminated by rapid vacuum filtration onto glass fiber filters. Radioactivity trapped onto the filters was determined (counted) and compared to control values in order to accurately evaluate any interaction of the tested compound(s) with the cloned dopamine D4.4 binding site.

A further experiment has as its target Dopamine D4.4 receptor (Homo sapiens (Human), UniProt P21917). Briefly: Competitive binding, spiperone radioligand. Here is the method:
as §2, §3
(§5) 0.16 nM, 0.7 nM and 1.2 nM spiperone, respectively, for dopamine D2S, D3 and D4.4 receptors,
as §4

Another experiment addresses Dopamine D2S receptor (Homo sapiens (Human), UniProt P14416). As to the kind of experiment: Competitive binding, spiperone radioligand. Here is the method: as §2, §3, §5, §4
A further experiment addresses Dopamine D3 receptor (Homo sapiens (Human), UniProt P35462). As to the kind of experiment: Competitive binding, spiperone radioligand. Here is the method: as §2, §3, §5, §4
For experiment [2], the target named is Melanocortin MC4 receptor (Homo sapiens (Human), UniProt P32245). As to the kind of experiment: Competitive binding, NDP-α-MSH radioligand. On the procedure: as §2, §3
Chain of Melanocortin MC4 receptor (P32245 whole entry): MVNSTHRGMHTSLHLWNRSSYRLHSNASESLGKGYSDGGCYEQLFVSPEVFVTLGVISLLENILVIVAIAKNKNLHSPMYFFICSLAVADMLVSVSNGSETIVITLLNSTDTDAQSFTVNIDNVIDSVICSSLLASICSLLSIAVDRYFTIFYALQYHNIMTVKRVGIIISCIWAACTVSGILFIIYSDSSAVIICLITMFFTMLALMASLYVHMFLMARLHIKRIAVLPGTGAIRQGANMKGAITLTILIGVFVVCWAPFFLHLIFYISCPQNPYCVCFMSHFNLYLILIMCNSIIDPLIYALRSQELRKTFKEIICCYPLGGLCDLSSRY
0.02 nM NDP-α-MSH for melanocortin MC4 receptor,
as §4

Chain of Dopamine D4.4 receptor (P21917 whole entry): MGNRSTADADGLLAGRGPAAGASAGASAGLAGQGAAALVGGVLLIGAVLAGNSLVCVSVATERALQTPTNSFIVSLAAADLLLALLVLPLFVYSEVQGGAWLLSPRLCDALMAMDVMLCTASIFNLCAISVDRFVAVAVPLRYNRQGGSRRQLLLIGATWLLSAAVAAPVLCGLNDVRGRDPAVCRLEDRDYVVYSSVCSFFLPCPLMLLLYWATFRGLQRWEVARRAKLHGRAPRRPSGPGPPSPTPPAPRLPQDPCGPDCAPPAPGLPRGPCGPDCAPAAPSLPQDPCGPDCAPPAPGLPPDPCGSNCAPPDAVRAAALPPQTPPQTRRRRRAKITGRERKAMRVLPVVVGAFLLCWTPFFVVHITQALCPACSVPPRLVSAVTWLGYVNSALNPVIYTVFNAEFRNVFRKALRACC
Chain of Dopamine D2S receptor (P14416 other isoform, or with tags, fused parts or gaps): as the sequence (P14416 other isoform, or with tags, fused parts or gaps) above
Chain of D4.4 type dopamine receptor (P21917 whole entry): as the sequence (P21917 whole entry) above
Chain of Dopamine D3 receptor (P35462 whole entry): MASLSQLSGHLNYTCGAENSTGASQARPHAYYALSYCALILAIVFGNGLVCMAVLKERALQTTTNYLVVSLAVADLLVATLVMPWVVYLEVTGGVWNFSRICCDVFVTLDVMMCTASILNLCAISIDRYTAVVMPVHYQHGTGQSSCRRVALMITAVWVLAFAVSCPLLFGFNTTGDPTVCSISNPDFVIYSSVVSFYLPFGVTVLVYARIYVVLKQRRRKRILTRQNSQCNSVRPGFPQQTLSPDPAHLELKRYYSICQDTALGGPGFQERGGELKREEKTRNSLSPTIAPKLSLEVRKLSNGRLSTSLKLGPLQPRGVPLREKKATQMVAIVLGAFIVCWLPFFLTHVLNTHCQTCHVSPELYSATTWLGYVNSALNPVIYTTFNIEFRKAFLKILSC
Chain of Dopamine D1 receptor (P21728 whole entry): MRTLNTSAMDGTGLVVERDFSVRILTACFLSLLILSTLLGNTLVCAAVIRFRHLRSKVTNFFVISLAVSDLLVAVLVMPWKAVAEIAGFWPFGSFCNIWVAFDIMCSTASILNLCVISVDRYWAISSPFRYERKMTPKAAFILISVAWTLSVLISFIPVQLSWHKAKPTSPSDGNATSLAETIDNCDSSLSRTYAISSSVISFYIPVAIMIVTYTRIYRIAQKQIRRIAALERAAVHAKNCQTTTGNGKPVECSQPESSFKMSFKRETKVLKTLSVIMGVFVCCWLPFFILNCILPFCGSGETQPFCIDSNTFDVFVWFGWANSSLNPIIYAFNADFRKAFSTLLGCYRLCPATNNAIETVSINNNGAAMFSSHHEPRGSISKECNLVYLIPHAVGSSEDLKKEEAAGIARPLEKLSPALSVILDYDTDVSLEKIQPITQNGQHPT

Consider `O=c1[nH]c(CN2CCN(c3cccc(O)c3)CC2)nc2ccccc12` [Compound R-55, 2-((4-(3-hydroxyphenyl)piperazin-1-yl)methyl)quinazolin-4-one], for which the “Selectivity D4/D2” value at D2 short receptor is 160. For the same compound, the “Competitive binding (%) at 5 μM of tested compound” value on Dopamine D1 receptor is −12%; in the experiment with Adrenergic α2 receptor it was 39%; at Dopamine D4.4 receptor (Dopamine D4.4 receptor, 5 μM), 31%; on Dopamine D2S receptor, 7%; at Dopamine D3 receptor, 5%; in experiment [2] it was 3%. For the same compound, the IC50 in experiment [1] worked out at 500 nM. For the same compound, on Dopamine D4.4 receptor (Table 8), the “binding affinity to the D4.4 receptor (in words)” value is listed as “high binding affinity”.
